The values below come from US9359451B2, “Methods and compositions for treating trauma-hemorrhage using estrogen and derivatives thereof” (THE UAB RESEARCH FOUNDATION, priority 2012, dated 2016).

Assay [1] relates to iNOS, nitrotyrosine, COX-2, Bax and Bcl-2. Put plainly: Spinal cord injury: immunohistochemical localization of nitrotyrosine, iNOS, COX-2, Bax and Bcl-2. The note with it: 24 h after SCI; ICI 182,780: co-administered with 17β-estradiol. Format: in vivo, mouse. How it is done: Mice were anaesthetized using chloral hydrate (400 mg/kg body weight) (Genovese 2006). A longitudinal incision was made on the midline of the back, exposing the paravertebral muscles. These muscles were dissected away exposing T5-T8 vertebrae. The spinal cord was exposed via a four-level T6-T7 laminectomy and SCI was produced by extradural compression using an aneurysm clip with a closing force of 24 g. Following surgery, 1 ml of saline was administered subcutaneously in order to replace the blood volume lost during surgery. During the surgery and recovery from anesthesia, the mice were placed on a warm heating pad and covered with a warm towel. […] Food and water were provided to the mice ad libitum. During this time period, the animals' bladders were manually voided twice a day until the mice were able to regain normal bladder function. In all injured groups, the spinal cord was compressed for 1 min. Sham-injured animals were only subjected to laminectomy. Mice were randomly allocated into the following groups: (i) saline+SCI group, mice received saline subcutaneously and were subjected to SCI (n=40); […] (v) saline+sham group, mice were subjected to the surgical procedures as above group except that the aneurysm clip was not applied (n=40); […] In the experiments regarding the motor score, the animals from all the experimental groups were observed and treated daily for 9 days after SCI. At different time points (see FIG. 30), the mice (n=10 from each group for each of the 3 time points) were sacrificed in order to evaluate the various parameters as described below. […] After deparaffinization, endogenous peroxidase was quenched with 0.3% (v/v) hydrogen peroxide in 60% (v/v) methanol for 30 min. […] Non-specific adsorption was minimized by incubating the section in 2% (v/v) normal goat serum in PBS for 20 min. Endogenous biotin or avidin binding sites were blocked by sequential incubation for 15 min with biotin and avidin (DBA), respectively. […] Sections were washed with PBS, and incubated with secondary antibody. Specific labeling was detected with a biotin-conjugated goat anti-rabbit IgG and avidin-biotin peroxidase complex (DBA) and counterstained with nuclear fast red. To verify the binding specificity for nitrotyrosine, iNOS, COX-2, Bax, and Bcl-2, some sections were also incubated with only the primary antibody (no secondary) or with only the secondary antibody (no primary). […] Immunocytochemistry photographs (n=5) were assessed by densitometry as previously described (Shea 1994) by using Imaging Densitometer (AxioVision, Zeiss, Milan, Italy) and a computer program.

Assay [2] deals with TNF-α, IL-1β, IL-6 and MCP-1 mRNA. Kind of assay: Spinal cord injury: quantitative real time PCR of cytokines and chemokines. Format: in vivo, mouse. The note with it: 24 h after SCI; ICI 182,780: co-administered with 17β-estradiol. How it is done: Mice were anaesthetized using chloral hydrate (400 mg/kg body weight) (Genovese 2006). A longitudinal incision was made on the midline of the back, exposing the paravertebral muscles. These muscles were dissected away exposing T5-T8 vertebrae. The spinal cord was exposed via a four-level T6-T7 laminectomy and SCI was produced by extradural compression using an aneurysm clip with a closing force of 24 g. Following surgery, 1 ml of saline was administered subcutaneously in order to replace the blood volume lost during surgery. During the surgery and recovery from anesthesia, the mice were placed on a warm heating pad and covered with a warm towel. The mice were singly housed in a temperature-controlled room at 27° C. and survival was measured over a period of 10 days. Food and water were provided to the mice ad libitum. During this time period, the animals' bladders were manually voided twice a day until the mice were able to regain normal bladder function. In all injured groups, the spinal cord was compressed for 1 min. Sham-injured animals were only subjected to laminectomy.
In the experiments regarding the motor score, the animals from all the experimental groups were observed and treated daily for 9 days after SCI. At different time points (see FIG. 30), the mice (n=10 from each group for each of the 3 time points) were sacrificed in order to evaluate the various parameters as described below.
A segment of spinal cord (320±124 mg) encompassing lesion epicentre was homogenized in a solution of Tri-reagent (Sigma®, Germany) according to the manufacturer's instructions. Total cellular RNA was isolated from the aqueous phase then the levels of […], TNF-α, MCP-1, IL-6 gene products were determined by Real Time PCR. The amount of each PCR product of gene target was normalized to Glyceraldehyde-3-phosphate dehydrogenase (GAPDH). The RNA extracted from spinal cord of individual mice was reverse transcripted into first strand cDNA with Random Hexamers and purified Avian Myeloblastosis Virus Reverse Transcriptase (Takara, Japan) in […] of reaction after a DNAse treatment and stored at −80° C. until use. Primers pair for each cytokine was designed using the software Oligo (Molecular Biology Insights, Cascade, Colo., USA). The PCR reactions were performed using the following cycle conditions: a denaturation step for 15 minutes at 95° C. and 40 cycles of 30 seconds denaturation at 94° C., 30 seconds annealing (TNF-á 61° C., IL-6 54° C., IL-1β 61° C., MCP-1 54° C., GADPH 56° C.), 15 sec at 72° C. and 7 minutes of final extension at 72° C. The PCR products were visualized by electrophoresis on agarose gel 2% stained by ethidium bromide. The purified PCR products were cloned into a plasmid vector, transformed into the E. coli TOP 10 (Invitrogen) and purified with Turbo Kit (QBIOgene, CA, USA). The recombinant plasmid was linearized upstream the target sequence using the restriction endonuclease PmeI (Fermentas, Canada). Tenfold dilutions of recombinant plasmid from 10^9 copies down to 10^1 copies were used as standards. The real time PCR assay was developed and evaluated on the Rotor-Gene 3000 system (Corbett Research, Australia). Reaction was carried out in a final volume of 25 μl containing 1× of SYBR PREMIX Ex Taq Takara, 200 nM each forward and reverse primers, 1× of Rox References Dye and 2 μl of cDNA. Cycling parameters were the following: 10 minutes at 95° C. for polymerase activation followed by 40 cycles of 15 seconds at 95° C., 15 seconds annealing (TNF-α 61° C., […], IL-6 54° C., IL-1β 61° C., MCP-1 54° C., GADPH 56° C.) 20 sec at 72° C. The signal was acquired on the FAM channel (multichannel machine) (source, 470 nm; detector, 510 nm; gain set to 5) with the fluorescence reading taken at the end of each 72° C. step. A melt step was added after a cycling run performed with the same parameters of the SYBR Green assay. […]

“Also recorded” adds a separate entry of the source.

Consider `C[C@]12CC[C@@H]3c4ccc(O)cc4C[C@@H](CCCCCCCCC[S+]([O-])CCCC(F)(F)C(F)(F)F)[C@H]3[C@@H]1CC[C@@H]2O` (stereo partly drawn) [ICI 182,780], for which, in assay [1], the “immunohistochemical expression of Bax” value was “significantly blocked the effect of the 17β-estradiol”, the “immunohistochemical expression of Bcl-2” value is “significantly blocked the effect of the 17β-estradiol”, the “immunostaining for COX-2” value is on record as “significantly blocked the effect of the 17β-estradiol” and the “immunostaining for iNOS” value is “significantly blocked the effect of the 17β-estradiol”. In assay [1], the immunostaining for nitrotyrosine result is “significantly blocked the effect of the 17β-estradiol”. Further, in assay [2], the “IL-1β mRNA levels in spinal cord” value is reported as “significantly blocked the effect of the 17β-estradiol”, the “IL-6 mRNA levels in spinal cord” value is “significantly blocked the effect of the 17β-estradiol”, the “MCP-1 mRNA levels in spinal cord” value was “significantly blocked the effect of the 17β-estradiol” and the “TNF-α mRNA levels in spinal cord” value is listed as “significantly blocked the effect of the 17β-estradiol”.
Take `C[C@]12CC[C@@H]3c4ccc(O)cc4CC[C@H]3[C@@H]1CC[C@@H]2O` [17β-estradiol]: in assay [1], the “immunohistochemical expression of Bax” value was “reduced the degree of positive staining for Bax; also recorded: significantly inhibited the SCI-induced increase in Bax expression”, the “immunohistochemical expression of Bcl-2” value was “attenuated the loss of positive staining for Bcl-2; also recorded: significantly prevents the loss of Bcl-2 expression”, the “immunostaining for COX-2” value was “reduced the degree of positive staining for COX-2; also recorded: marked reduction in the immunostaining for COX-2” and the “immunostaining for iNOS” value is listed as “reduced the degree of positive staining for iNOS; also recorded: marked reduction in the immunostaining”. In assay [1], the immunostaining for nitrotyrosine result is listed as “reduced the degree of positive staining for nitrotyrosine; also recorded: marked reduction in the immunostaining”. Moreover, in assay [2], the “IL-1β mRNA levels in spinal cord” value was “significantly reduced”, the “IL-6 mRNA levels in spinal cord” value was “significantly reduced”, the “MCP-1 mRNA levels in spinal cord” value is given as “significantly reduced” and the “TNF-α mRNA levels in spinal cord” value is recorded as “significantly reduced”.
